How the values were obtained:
[1] = NHP study of Ab0335 (SAR18) versus 16H7 (SAR16) in high-fat diet-induced obese cynomolgus monkeys; type: in vivo, Cynomolgus monkey (Macaca fascicularis); conditions: for body weight compared to baseline values (value prior start of treatment) / food intake: obese cynomolgus monkeys; for body weight (in words): SAR16 1 mg/kg, SAR18 low- and high-dose; for food intake: especially lunch (apple), lesser impact on dinner (HFD); for plasma triglyceride (TG) values: over the whole study period
Procedure: Both were tested as single administration in the most relevant animal model that reflects the intended human population. Monkeys are a desirable species to examine the potential effects of drug candidates because of the similarity of their absorption, distribution, metabolism, and excretion profile compared to that of humans. The cynomolgus monkey is selected as the test species of choice over other lower mammalian species for more meaningful and translatable results because it is closely related to humans, both phylogenetically and physiologically. Thus, the pharmacokinetic and pharmacodynamics of varying doses of the compounds were explored in the high-fat diet-induced obese and insulin resistance cynomolgus monkey model.
Cynomolgus monkey (Macaca fascicularis) was selected as the test species of choice for more meaningful results that were translatable to humans. More than 50 male monkeys were trained to identify 40 HFD induced obese monkeys for the study.
They all fulfilled the following metabolic criteria: • weight at least 8 kg, age at least 8 years, fasting insulin >55 μU/mL (in comparison lean monkeys of same age range: weight 5 to 8 kg, fasting glucose ˜70 mg/dL, and fasting insulin ˜[…]), HbA1c >4%, triglycerides >1.3 mmol/L, LDL >5 mmol/L.
The monkeys were individually housed in species- and size appropriate metabolic stainless-steel caging with ad libitum access to water and under controlled environmental conditions with room temperature of 18° C. to 29° C., relative humidity of 30% to 70%, and a minimum of 10 air changes per hour. A time-controlled lighting system provided a regular 12-hour light/12-hour dark diurnal cycle. Cages were cleaned at regular intervals. The monkeys had three meals per day with a daily energy intake of ˜680 kcal (˜2.85 MJ). All food was withdrawn at 5:00 PM so that monkeys were fasted overnight. Monkeys were provided with enrichment toys or devices at all times. […] Each batch of monkey chow was delivered with an accompanying certificate of analysis detailing nutritional composition and levels of specified contaminants (e.g., heavy metals, aflatoxin, and insecticides). Ad libitum access to water through the main system was suspended on days in which water intake was quantified.
(§1) There was a run-in period during which monkeys were injected subcutaneously with vehicle once weekly. Food intake (calculated as TEI) and water intake were measured daily along with once-weekly body weight evaluation and one-time baseline value determination for metabolic biomarkers, safety biomarkers, IV glucose tolerance test (IVGTT), and profile for glucose, insulin, and plasma lipids.
For the dosing period 40 trained monkeys (n=10 per group) were selected and stratified for their body weight, fat composition and triglycerides in a four-arm design. All treatments, including a vehicle treated control group were administered subcutaneously on days +1, +19 and +37 and monitored closely for 8 weeks followed by a 4-week observation wash-out period. The dosing period was designed as a four-arm study, and monkeys were treated with either vehicle, SAR16, or SAR18.
The SAR16-treated monkeys were dosed at 1 mg/kg on day +1, day +19, and day +37. The SAR18-treated monkeys were dosed in the low-dose arm at 1 mg/kg on day +1, day +19, and day +37. SAR18 was further dosed in the high-dose arm at 3 mg/kg on day +1, day +19, and day +37.
Other parameters were also measured during the study, including food intake, body fat, plasma ketone bodies, as well as, on blood glucose control (glucose profile, fed, fasting plasma glucose and during ivGTT). One group received the vehicle. The compounds were administered subcutaneously (SC) (12 weeks “evaluation phase” plus run-out) to obese male cynomolgus macaques (Macaca fascicularis).
The SAR16-treated monkeys were dosed 3 times on day +1, day +19, and day +37 at 1 mg/kg. […]

[2] = SAR16 (16H7) standalone and in combination with dulaglutide in DIO NASH cynomolgus monkeys; type: in vivo, Cynomolgus monkey (Macaca fascicularis)
Procedure: Both were tested as single administration and in combination of both in the most relevant animal model that reflects the intended human population. Thus, the pharmacokinetic and pharmacodynamics of varying doses of the compounds were explored in the high-fat diet-induced obese and insulin resistance cynomolgus monkey model with diagnosed non-alcoholic steatohepatitis (NASH), mimicking the adult human NASH insulin resistance phenotype.
Cynomolgus monkey (Macaca fascicularis) was selected as the test species of choice for more meaningful results that were translatable to humans. More than 50 male monkeys were trained to identify 40 HFD induced obese NASH monkeys for the study.
as §1, with “every third day.” for “once weekly.”, “twice-weekly” for “once-weekly”, “and” for “and one-time”, “(IVGTT), liver biopsy for gene expression analysis,” for “(IVGTT),”
For the dosing period 40 trained monkeys (n=10 per group) were selected and stratified for body weight, fasting plasma glucose (FPG), and fasting plasma insulin (FPI) and insulin response from baseline during the IVGTT. All treatments were administered subcutaneously for […]. The dosing period was designed as a four-arm, dose-ramping study, and monkeys were treated with either vehicle, SAR10, SAR16, or a combination of both SAR10 and SAR16.
(§2) The SAR10-treated monkeys were dosed every 3rd day at 60 μg/kg initiated by dose ramping (3 dose steps, week 1: 20 μg/kg, week 2: 40 μg/kg, week 3 to runout: 60 μg/kg). The SAR16-treated monkeys were dosed at 1 mg/kg on day +1, 3 mg/kg on day +16, and then repeat maintenance dose of 3 mg/kg on day +46. The Combo-treated monkey were dosed with both SAR10 and SAR16 as the same pattern of the SAR10 and SAR16 treated monkeys.
Other parameters were also measured during the study, including food intake, body fat, plasma ketone bodies, as well as blood glucose control (glucose profile, fed, fasting plasma glucose and during ivGTT). One group received the vehicle. The compounds were administered subcutaneously (SC) (12 weeks “evaluation phase” plus run-out) to obese and NASH male cynomolgus macaques (Macaca fascicularis).
as §2, with “at” for “as”

[3] = compared to the vehicle treated group
[4] = day +76 compared to baseline (day −27)

| Substance | body weight compared to baseline values (value prior start of treatment) ([1]; 1 mg/kg SC on day +1, +19, +37) | body weight (in words) [1] | food intake [1] | plasma triglyceride (TG) values [1] | body weight (in words) ([2]; DIO NASH cynomolgus monkeys) | food intake ([2]; DIO NASH cynomolgus monkeys) | fasting glucose and fed glucose levels (12:30 and 18:30) [2, 3] | ivGTT glucose AUC [2, 3] | blood glucose levels, plasma profile [2, 4] | insulin, plasma profile [2, 4] | HDL levels, plasma profile ([2]; day +76 versus day −27) | T-ketones levels, plasma profile ([2]; day +76 versus day −27) | TC and LDL levels, plasma profile ([2]; day +76 versus day −27) | TG values, plasma profile ([2]; day +76 versus day −27) | liver fat fraction change (MRI) ([2]; measured on days +81/+82/+83/+84, DIO NASH cynomolgus monkeys) | NASH steatosis score ([2]; more monkeys improved compared to vehicle treated group) | body weight compared to baseline values (value prior start of treatment) ([1]; 3 mg/kg SC (high dose) on day +1, +19, +37) |
| --- | --- | --- | --- | --- | --- | --- | --- | --- | --- | --- | --- | --- | --- | --- | --- | --- | --- |
| 16H7: anti FGFR1c/KLB monoclonal antibody of WO 2011/071783, IgG2 backbone; HC SEQ ID NO: 1, LC SEQ ID NO: 2 [Ab 16H7] | 86.5±1.6% | Significant reductions in body weight | Reduction of food intake | quite robustly reduced | Significant reductions in body weight | Reduction of food intake | No significant change | significantly decreased | appreciable decreases | decreased | slightly increased | increased T-ketones levels | quite stable | lower TG values | −30.0% | improved steatosis score |  |
| Ab0335: IgG4 PE; 16H7 VL (N25S, D49S, D50A, D91E, N93E); 16H7 VH (M34V, I83T, D109E); HC SEQ ID NO: 39, LC SEQ ID NO: 46 | 94.5±1.8% | Significant reductions in body weight | Reduction of food intake | quite robustly reduced |  |  |  |  |  |  |  |  |  |  |  |  | 89.9±1.7% |

Source: patent publication US20250115669A1, “FGFR1/KLB Targeting Agonistic Antigen-Binding Proteins and Conjugates Thereof with GLP-1R Agonistic Peptides” (SANOFI, priority 2020, published 2025)
